According to publication PMC7438329 (Scientific Reports, 2020):
Structures can show the parent of a compound that is named as a salt. Where two headings read alike, the source gives them in different places.

Columns and labels:
zebrafish embryos [1] = type: in vivo, zebrafish (Danio rerio)
Procedure: To this end, three zebrafish embryos were treated with a drug (10 ~ 100 μM) in a well of 96-well plate at the onset of 24 hpf and then assayed for touch responses at 27 and 48 hpf, when zebrafish embryos show tactile-induced short-distance forward movement and escape swimming, respectively.
Two chemical libraries from Kyoto University and Nagoya University, composed of total ~ 1,000 bioactive compounds, were used in this study. The 2 µl of chemical compounds (1 ~ 10 mM) dissolved in DMSO were diluted to 200 µl with E3 medium (5 mM NaCl, 0.17 mM KCl, 0.33 mM CaCl2, 0.33 mM MgSO4) and transferred to 96-well plate. Three zebrafish embryos (24 hpf) were transferred into each well of the plate and incubated in a 28.5 °C incubator. At 27 hpf, three embryos with a small amount of drug solution were transferred to a 90-mm dish containing 15 ml of E3 medium and subjected to touch response using forceps under a dissection microscope Leica MZ16. After this assay, embryos with a small amount of E3 solution were transferred back to the drug solution in 96-well plate and incubated in the 28.5 °C incubator. At 48 hpf, embryos were transferred to a 90-mm dish containing 15 ml of E3 medium again and subjected to the touch response.

zebrafish embryos [2] = type: in vivo, zebrafish (Danio rerio); remark: listed apart in the source
zGlyR α1 + zGlyRβb = zGlyR α1 + zGlyRβb (Danio rerio, UniProt O93430+Q6DC22); assay: two-electrode voltage-clamp of Xenopus oocytes expressing heteromeric zebrafish α1βb GlyR; type: cell-based
zGlyR α1 + zGlyRβb, sequence (Q6DC22 entry or part of it, one chain of several): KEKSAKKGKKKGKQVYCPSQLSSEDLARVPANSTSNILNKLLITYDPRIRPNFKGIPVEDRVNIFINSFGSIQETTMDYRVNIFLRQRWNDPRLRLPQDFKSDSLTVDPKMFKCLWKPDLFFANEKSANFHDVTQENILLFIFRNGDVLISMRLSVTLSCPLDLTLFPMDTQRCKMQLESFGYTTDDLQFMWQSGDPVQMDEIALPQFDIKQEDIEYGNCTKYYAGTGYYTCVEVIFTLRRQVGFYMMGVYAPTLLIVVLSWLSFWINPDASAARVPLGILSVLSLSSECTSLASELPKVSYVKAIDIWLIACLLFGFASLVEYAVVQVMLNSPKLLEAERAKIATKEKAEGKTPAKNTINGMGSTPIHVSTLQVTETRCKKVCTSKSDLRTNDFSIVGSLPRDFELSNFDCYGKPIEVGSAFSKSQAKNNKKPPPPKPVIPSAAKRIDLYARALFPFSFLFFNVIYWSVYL
Procedure: (§1) To assess the drug sensitivity of GlyRs, we employed electrophysiology using Xenopus oocytes.
(§2) Full-length cDNAs encoding zebrafish GlyR α1 and βb and human GlyR α1 and β subunits were used in this study. Capped cRNAs for expression in Xenopus laevis oocytes were synthesized from linearized templates using SP6 mMessage mMachine SP6 transcription kit (Thermo Fisher Scientific) as described previously. Oocytes were injected with five femtomoles of cRNA using a Nanoject II (Drummond Scientific). Oocytes were moved to 48-well plates in Barth’s solution (88 mM NaCl, 1 mM KCl, 2.4 mM NaHCO3, 0.33 mM Ca (NO3)2, 0.41 mM CaCl2, 0.82 mM MgSO4, 10 mM HEPES at pH 7.5 with NaOH, supplemented with 50 µg/ml gentamicin and 100 units/ml penicillin/streptomycin) and incubated at 18 °C for 24–48 h prior to recording. Oocyte recording solution (90 mM NaCl, 1 mM KCl, 2 mM CaCl2, 1 mM MgCl2, 10 mM HEPES at pH 7.5 with NaOH) and drug solutions of seven different concentrations were flew into the oocyte chamber using a BPS-8 solution switcher (ALA Scientific). Borosilicate electrodes had resistances of ~ 2.0 MΩ when filed with 3 M KCl. […] Signals were low-pass filtered at 10 Hz, and sampled at 100 Hz. […] Statistical significance was assessed using the pair-wise analysis of variance.

zebrafish GlyRs = biological target: T1, zebrafish GlyRs (Danio rerio, UniProt O93430); assay: cell-based; type: cell-based; details: rounded value in discussion; read-out: IC50 values of GlyRs expressed in Xenopus oocytes
T1 sequence (O93430 25-444): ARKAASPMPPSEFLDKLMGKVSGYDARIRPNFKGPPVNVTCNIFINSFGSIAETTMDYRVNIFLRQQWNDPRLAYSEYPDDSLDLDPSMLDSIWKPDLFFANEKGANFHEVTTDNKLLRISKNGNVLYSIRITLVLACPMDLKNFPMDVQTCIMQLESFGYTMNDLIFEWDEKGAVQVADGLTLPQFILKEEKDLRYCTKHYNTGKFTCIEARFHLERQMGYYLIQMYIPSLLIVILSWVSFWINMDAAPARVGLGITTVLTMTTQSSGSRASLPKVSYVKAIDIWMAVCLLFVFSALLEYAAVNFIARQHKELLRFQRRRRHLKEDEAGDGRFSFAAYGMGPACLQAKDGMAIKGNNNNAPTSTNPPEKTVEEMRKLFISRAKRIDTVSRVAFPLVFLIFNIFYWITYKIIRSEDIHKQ
Procedure: as §2

homomeric α GlyRs = details: mammals; cited from earlier work
heteromeric αβ GlyRs = details: mammals; cited from earlier work
hGlyR α1 + hGlyRβb = biological target: T2, hGlyR α1 + hGlyRβb (Homo sapiens, UniProt P23415+P48167); assay: two-electrode voltage-clamp of Xenopus oocytes expressing heteromeric human α1β GlyR; type: cell-based
T2 construct: Full-length cDNAs encoding zebrafish GlyR α1 and βb and human GlyR α1 and β subunits were used in this study; expressed in transfected cells; host or cells: Xenopus laevis oocytes injected with cRNA
T2 sequence (P48167 23-497, one chain of several): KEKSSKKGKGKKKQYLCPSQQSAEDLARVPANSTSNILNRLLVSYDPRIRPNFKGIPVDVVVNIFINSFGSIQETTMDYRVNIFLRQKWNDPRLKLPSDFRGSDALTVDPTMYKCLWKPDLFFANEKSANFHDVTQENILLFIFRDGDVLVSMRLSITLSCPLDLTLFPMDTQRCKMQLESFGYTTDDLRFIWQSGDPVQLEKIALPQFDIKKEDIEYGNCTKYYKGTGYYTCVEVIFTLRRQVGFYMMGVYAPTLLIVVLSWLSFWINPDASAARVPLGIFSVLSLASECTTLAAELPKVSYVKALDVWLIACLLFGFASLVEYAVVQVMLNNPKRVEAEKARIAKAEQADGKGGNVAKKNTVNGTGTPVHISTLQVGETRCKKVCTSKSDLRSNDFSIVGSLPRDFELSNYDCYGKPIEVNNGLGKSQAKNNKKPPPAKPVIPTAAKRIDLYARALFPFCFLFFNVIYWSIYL
Procedure: as §1
(§3) We also investigated whether niflumic acid blocks human GlyRs.
as §2

zebrafish embryos [3] = assay: video recording of zebrafish touch response at 48 hpf in the presence of drug; type: in vivo, zebrafish (Danio rerio); details: for tactile response of zebrafish embryos at 48 hpf: bath application 30 min: 70 μM strychnine, 5 mM picrotoxin, 200 μM nifedipine, 500 μM niflumic acid; for drug concentration efficient for inducing abnormal touch response: zebrafish embryos 48 hpf, bath application
From the text: Tactile-evoked zebrafish movements in the presence of control 1% DMSO or drug were video recorded at 48 hpf using a dissection microscope. Touch responses elicited by tactile stimulation delivered to the tail with forceps were captured with a high-speed CCD camera at 200 frames per second (HAS-220, Ditect) as described previously.

zGlyR α1 = biological target: T3, zGlyR α1 (Danio rerio, UniProt O93430); assay: two-electrode voltage-clamp of Xenopus oocytes expressing homomeric zebrafish α1 GlyR; type: cell-based
T3 construct: Full-length cDNAs encoding zebrafish GlyR α1 and βb and human GlyR α1 and β subunits were used in this study; expressed in transfected cells; host or cells: Xenopus laevis oocytes injected with cRNA
T3 sequence (O93430 25-444): T1 sequence (O93430 25-444)
Procedure: as §1, §2

hGlyR α1 = biological target: T4, hGlyR α1 (Homo sapiens, UniProt P23415); assay: two-electrode voltage-clamp of Xenopus oocytes expressing homomeric human α1 GlyR; type: cell-based
T4 construct: Full-length cDNAs encoding zebrafish GlyR α1 and βb and human GlyR α1 and β subunits were used in this study; expressed in transfected cells; host or cells: Xenopus laevis oocytes injected with cRNA
T4 sequence (P23415 29-457): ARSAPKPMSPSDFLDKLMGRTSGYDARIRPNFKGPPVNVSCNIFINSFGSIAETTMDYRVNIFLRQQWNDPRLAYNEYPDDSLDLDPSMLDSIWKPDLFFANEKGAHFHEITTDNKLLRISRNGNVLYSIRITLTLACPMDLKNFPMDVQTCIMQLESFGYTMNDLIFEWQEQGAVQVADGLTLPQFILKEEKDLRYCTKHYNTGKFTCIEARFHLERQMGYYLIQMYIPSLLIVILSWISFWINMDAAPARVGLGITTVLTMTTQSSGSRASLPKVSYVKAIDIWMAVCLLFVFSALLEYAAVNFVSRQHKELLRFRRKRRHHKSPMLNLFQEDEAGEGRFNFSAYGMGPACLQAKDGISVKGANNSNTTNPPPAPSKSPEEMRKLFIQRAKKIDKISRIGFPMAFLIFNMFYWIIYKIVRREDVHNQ
Procedure: as §1, §3, §2

[4] = statement in discussion, no reference given; cited from earlier work
[5] = drug 10 ~ 100 μM, 1% DMSO, from 24 hpf, touch responses at 27 and 48 hpf
[6] = purchased drugs, several different concentrations
[7] = read-out: IC50 of inhibition of glycine current, with 200 μM glycine, mean ± SEM, 10 oocytes
[8] = with 200 μM glycine, mean ± SEM, 10 oocytes

Compound: Cc1c(-c2ccccc2)oc2c(C(=O)OCCN3CCCCC3)cccc2c1=O [Flavoxate hydrochloride]
- Response 1st screening (zebrafish embryos [1]; [5]): Weird contraction
- Response 2nd screening (zebrafish embryos [2]; [6]): Normal

Compound: Cc1cccc(Nc2ccccc2C(=O)O)c1C [Mefenamic acid]
- Response 1st screening (zebrafish embryos [1]; [5]): Body shrinkage
- Response 2nd screening (zebrafish embryos [2]; [6]): Normal

Compound: Picrotoxin
- Hill coeff of drug-mediated inhibition (zGlyR α1 + zGlyRβb): 0.9 ± 0.0
- IC50 (zGlyR α1 + zGlyRβb; read-out: IC50 of inhibition of glycine current): 6.4 ± 0.3 µM
- IC50 (zebrafish GlyRs): 6 µM
- concentration of picrotoxin that blocks homomeric α GlyRs (homomeric α GlyRs): ~ 10 μM
- picrotoxin necessary to block heteromeric αβ GlyRs compared with homomeric α GlyRs (heteromeric αβ GlyRs): ten folds more
- Response 1st screening (zebrafish embryos [1]; [5]): failed to identify it
- IC50 (hGlyR α1 + hGlyRβb; [7]): 94 µM
- Hill coeff of drug-mediated inhibition (hGlyR α1 + hGlyRβb; [8]): **0.5 ± 0.1
- tactile response of zebrafish embryos at 48 hpf (zebrafish embryos [3]): shrinkage of the body
- drug concentration efficient for inducing abnormal touch response (zebrafish embryos [3]): 5 mM
- IC50 (zGlyR α1; [7]): 6.1 ± 0.3 µM
- Hill coeff of drug-mediated inhibition (zGlyR α1; [8]): 1.2 ± 0.1
- IC50 (hGlyR α1; [7]): 7.2 ± 0.9 µM
- Hill coeff of drug-mediated inhibition (hGlyR α1; [8]): 0.9 ± 0.1

Compound: NCC(=O)O [glycine, Glycine]
- Hill coefficient of glycine-dependent gating (zGlyR α1 + zGlyRβb): 2.5 ± 0.2
- EC50 (zGlyR α1 + zGlyRβb; read-out: EC50 of glycine-dependent gating): 163 µM
- Hill coefficient of glycine-dependent gating (hGlyR α1 + hGlyRβb): 3.2 ± 0.2
- Hill coefficient of glycine-dependent gating (zGlyR α1; mean ± SEM, 10 oocytes): 2.7 ± 0.1
- EC50 (zGlyR α1; mean ± SEM, 10 oocytes, read-out: EC50 of glycine-dependent gating): 112 ± 10 µM
- Hill coefficient of glycine-dependent gating (hGlyR α1): 2.9 ± 0.1

Compound: Cl.Cl.c1ccc2c3c([nH]c2c1)C1C2CCC(C4CCCNC42)N1CC3 (stereo not shown) [Nitrarine dihydrochloride]
- Response 1st screening (zebrafish embryos [1]; [5]): Weird contraction
- Response 2nd screening (zebrafish embryos [2]; [6]): Normal

Compound: CCCCCC[C@H]1C(=O)O[C@H](C)[C@H](NC(=O)c2cccc(NC=O)c2O)C(=O)O[C@@H](C)[C@@H]1OC(=O)CC(C)C [Antimycin A]
- Response 1st screening (zebrafish embryos [1]; [5]): Weird contraction
- Response 2nd screening (zebrafish embryos [2]; [6]): Normal

Compound: COC(=O)C1=C(C)NC(C)=C(C(=O)OC)C1c1ccccc1[N+](=O)[O-] [Nifedipine]
- Hill coeff of drug-mediated inhibition (zGlyR α1 + zGlyRβb): 0.4 ± 0.0
- IC50 (zGlyR α1 + zGlyRβb): 162 ± 24 µM
- IC50 (zebrafish GlyRs): 200 µM
- Response 1st screening (zebrafish embryos [1]; zebrafish, in vivo): Body shrinkage
- Response 2nd screening (zebrafish embryos [2]; zebrafish, in vivo): Body shrinkage
- IC50 (hGlyR α1 + hGlyRβb): 130 ± 27 µM
- Hill coeff of drug-mediated inhibition (hGlyR α1 + hGlyRβb; [8]): 0.9 ± 0.2
- IC50 (zGlyR α1): 239 ± 38 µM
- Hill coeff of drug-mediated inhibition (zGlyR α1; [8]): 0.5 ± 0.1
- IC50 (hGlyR α1): 171 ± 30 µM
- Hill coeff of drug-mediated inhibition (hGlyR α1; [8]): 1.1 ± 0.2

Compound: COc1ccc(Cc2nccc3cc(OC)c(OC)cc23)cc1OC [Papaverine hydrochloride]
- Response 1st screening (zebrafish embryos [1]; [5]): Weird contraction
- Response 2nd screening (zebrafish embryos [2]; [6]): Normal

Compound: O=C1C[C@@H]2OCC=C3CN4CC[C@]56c7ccccc7N1[C@H]5[C@H]2[C@H]3C[C@H]46 [Strychnine]
- Response 1st screening (zebrafish embryos [1]; [5]): Body shrinkage
- Response 2nd screening (zebrafish embryos [2]; [6]): Body shrinkage
- Hill coeff of drug-mediated inhibition (hGlyR α1 + hGlyRβb): 0.8 ± 0.1
- IC50 (hGlyR α1 + hGlyRβb): 0.092 ± 0.019 µM
- tactile response of zebrafish embryos at 48 hpf (zebrafish embryos [3]): bilateral trunk contractions resulting in the shrinkage of the body
- Hill coeff of drug-mediated inhibition (zGlyR α1): 0.7 ± 0.2
- Hill coeff of drug-mediated inhibition (hGlyR α1): 1.0 ± 0.1
- IC50 (hGlyR α1): 0.072 ± 0.012 µM

Compound: CC(N)CCCC(C)(C)O (stereo not shown) [Heptaminol hydrochloride]
- Response 1st screening (zebrafish embryos [1]; [5]): Body shrinkage
- Response 2nd screening (zebrafish embryos [2]; [6]): Normal

Compound: O=c1oc2ccccc2c(O)c1Cc1c(O)c2ccccc2oc1=O [Dicumarol]
- Response 1st screening (zebrafish embryos [1]; [5]): Weird contraction
- Response 2nd screening (zebrafish embryos [2]; [6]): Normal

Compound: O=C(O)c1cccnc1Nc1cccc(C(F)(F)F)c1 [Niflumic acid]
- IC50 (zGlyR α1 + zGlyRβb): 426 µM
- Hill coeff of drug-mediated inhibition (zGlyR α1 + zGlyRβb; [8]): 0.9 ± 0.1
- IC50 (zebrafish GlyRs): 400 µM
- Response 1st screening (zebrafish embryos [1]; [5]): Weird contraction
- solubility in water [4]: insoluble to water
- Response 2nd screening (zebrafish embryos [2]; [6]): Body shrinkage
- IC50 (hGlyR α1 + hGlyRβb): 930 ± 111 µM
- Hill coeff of drug-mediated inhibition (hGlyR α1 + hGlyRβb; [8]): 1.1 ± 0.1
- tactile response of zebrafish embryos at 48 hpf (zebrafish embryos [3]): touch-evoked shrinkage of the body
- drug concentration efficient for inducing abnormal touch response (zebrafish embryos [3]): 0.5 mM
- IC50 (zGlyR α1): 801 ± 91 µM
- Hill coeff of drug-mediated inhibition (zGlyR α1; [8]): 0.5 ± 0.1
- IC50 (hGlyR α1): 1070 µM
- Hill coeff of drug-mediated inhibition (hGlyR α1; [8]): 1.1 ± 0.2
